# Results reported in the kinase profiling compilation of Christmann-Franck et al. (2016).
# Key:
# Assay in all cases: KINOMEscan competition binding
# Conditions in all cases: compound 10.0 µM
# RET (human) = RET (human) (UniProt P07949)
# PIK3C2B (human) = PIK3C2B (human) (UniProt O00750)
# PHKG1 (human) = PHKG1 (human) (UniProt Q16816)
# SRC (human) = SRC (human) (UniProt P12931)
# CAMK2A (human) = CAMK2A (human) (UniProt Q9UQM7)
# MAP3K5 (human) = MAP3K5 (human) (UniProt Q99683)
# MAPK10 (human) = MAPK10 (human) (UniProt P53779)
# MAPK9 (human) = MAPK9 (human) (UniProt P45984)
# TIE1 (human) = TIE1 (human) (UniProt P35590)
# BTK (human) = BTK (human) (UniProt Q06187)
# ROCK1 (human) = ROCK1 (human) (UniProt Q13464)
# CDKL5 (human) = CDKL5 (human) (UniProt O76039)
# MUSK (human) = MUSK (human) (UniProt O15146)
# CLK4 (human) = CLK4 (human) (UniProt Q9HAZ1)
# PRPF4B (human) = PRPF4B (human) (UniProt Q13523)
# Sequence of PRPF4B (human) (Q13523 whole entry, looked up): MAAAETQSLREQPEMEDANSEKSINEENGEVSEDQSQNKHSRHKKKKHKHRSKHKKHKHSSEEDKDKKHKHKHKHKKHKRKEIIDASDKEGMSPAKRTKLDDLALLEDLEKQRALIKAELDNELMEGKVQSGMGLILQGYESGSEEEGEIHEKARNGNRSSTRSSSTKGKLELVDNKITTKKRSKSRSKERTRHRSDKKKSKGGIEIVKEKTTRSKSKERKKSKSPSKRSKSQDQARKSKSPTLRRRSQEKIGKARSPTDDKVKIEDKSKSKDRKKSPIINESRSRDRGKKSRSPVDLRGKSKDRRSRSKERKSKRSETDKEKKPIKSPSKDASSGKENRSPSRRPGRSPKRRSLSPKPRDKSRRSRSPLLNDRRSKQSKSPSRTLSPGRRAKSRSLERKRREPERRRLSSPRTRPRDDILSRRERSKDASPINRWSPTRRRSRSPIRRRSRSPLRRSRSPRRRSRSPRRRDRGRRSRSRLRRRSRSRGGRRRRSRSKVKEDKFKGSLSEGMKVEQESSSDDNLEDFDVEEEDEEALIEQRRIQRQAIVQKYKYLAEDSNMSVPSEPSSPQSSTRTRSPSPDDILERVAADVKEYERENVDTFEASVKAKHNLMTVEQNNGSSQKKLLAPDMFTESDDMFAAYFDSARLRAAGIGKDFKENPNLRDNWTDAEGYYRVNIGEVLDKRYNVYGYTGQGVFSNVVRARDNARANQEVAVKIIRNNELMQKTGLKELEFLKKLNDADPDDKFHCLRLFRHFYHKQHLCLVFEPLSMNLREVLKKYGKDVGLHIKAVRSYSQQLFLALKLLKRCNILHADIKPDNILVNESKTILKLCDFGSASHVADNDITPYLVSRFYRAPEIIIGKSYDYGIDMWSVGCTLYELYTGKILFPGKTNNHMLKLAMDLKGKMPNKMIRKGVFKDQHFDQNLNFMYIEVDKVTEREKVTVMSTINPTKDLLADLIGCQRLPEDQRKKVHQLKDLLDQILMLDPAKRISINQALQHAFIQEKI
# STK11 (human) = STK11 (human) (UniProt Q15831)
# Sequence of STK11 (human) (Q15831 whole entry, looked up): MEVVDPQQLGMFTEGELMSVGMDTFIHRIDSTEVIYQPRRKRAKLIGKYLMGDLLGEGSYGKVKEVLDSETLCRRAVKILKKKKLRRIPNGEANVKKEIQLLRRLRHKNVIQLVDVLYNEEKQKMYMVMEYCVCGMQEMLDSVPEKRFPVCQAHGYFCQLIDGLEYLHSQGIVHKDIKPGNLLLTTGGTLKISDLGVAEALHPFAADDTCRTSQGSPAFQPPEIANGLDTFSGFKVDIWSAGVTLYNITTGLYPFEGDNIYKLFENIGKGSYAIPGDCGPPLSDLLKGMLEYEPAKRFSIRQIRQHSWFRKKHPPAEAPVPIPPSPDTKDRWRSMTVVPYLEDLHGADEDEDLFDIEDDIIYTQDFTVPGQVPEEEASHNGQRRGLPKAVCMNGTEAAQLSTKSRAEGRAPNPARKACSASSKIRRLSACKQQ
# FRK (human) = FRK (human) (UniProt P42685)
# ACVRL1 (human) = ACVRL1 (human) (UniProt P37023)
# [1] = system: EGFR (human), P00533 [G719C]
# GRK1 (human) = GRK1 (human) (UniProt Q15835)
# Sequence of GRK1 (human) (Q15835 whole entry, looked up): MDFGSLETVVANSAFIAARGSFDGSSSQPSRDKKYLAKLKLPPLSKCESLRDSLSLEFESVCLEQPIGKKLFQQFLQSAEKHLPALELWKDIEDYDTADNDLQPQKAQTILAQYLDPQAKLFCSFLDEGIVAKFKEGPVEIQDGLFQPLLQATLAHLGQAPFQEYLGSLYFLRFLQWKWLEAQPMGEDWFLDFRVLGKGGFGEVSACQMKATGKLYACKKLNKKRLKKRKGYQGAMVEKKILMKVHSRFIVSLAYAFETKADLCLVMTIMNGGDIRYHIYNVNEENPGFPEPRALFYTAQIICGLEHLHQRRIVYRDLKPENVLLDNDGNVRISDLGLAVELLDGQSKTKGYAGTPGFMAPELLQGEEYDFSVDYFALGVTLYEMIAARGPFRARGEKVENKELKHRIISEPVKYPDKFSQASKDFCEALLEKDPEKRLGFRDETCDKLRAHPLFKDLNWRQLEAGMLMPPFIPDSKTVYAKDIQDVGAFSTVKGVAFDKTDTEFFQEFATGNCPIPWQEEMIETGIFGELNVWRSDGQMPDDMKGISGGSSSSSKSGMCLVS
# HIPK2 (human) = HIPK2 (human) (UniProt Q9H2X6)
# STK17A (human) = STK17A (human) (UniProt Q9UEE5)
# Sequence of STK17A (human) (Q9UEE5 whole entry, looked up): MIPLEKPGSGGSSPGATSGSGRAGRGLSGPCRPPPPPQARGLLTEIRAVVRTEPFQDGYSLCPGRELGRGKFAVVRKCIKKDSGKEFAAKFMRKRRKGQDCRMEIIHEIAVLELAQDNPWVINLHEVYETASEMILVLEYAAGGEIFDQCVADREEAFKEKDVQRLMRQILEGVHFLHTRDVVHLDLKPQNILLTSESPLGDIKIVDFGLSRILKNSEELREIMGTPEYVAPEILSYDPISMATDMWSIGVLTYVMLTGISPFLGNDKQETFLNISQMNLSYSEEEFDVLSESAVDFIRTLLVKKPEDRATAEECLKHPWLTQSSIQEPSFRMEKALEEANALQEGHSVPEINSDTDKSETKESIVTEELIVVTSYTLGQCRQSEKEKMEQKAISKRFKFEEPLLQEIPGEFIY
# PRKCH (human) = PRKCH (human) (UniProt P24723)
# ZAP70 (human) = ZAP70 (human) (UniProt P43403)
# PI4KB (human) = PI4KB (human) (UniProt Q9UBF8)
# EPHB6 (human) = EPHB6 (human) (UniProt O15197)
# MAPK8 (human) = MAPK8 (human) (UniProt P45983)
# [2] = system: MET (human), P08581 [M1250T]
# MAPK4 (human) = MAPK4 (human) (UniProt P31152)
# TTK (human) = TTK (human) (UniProt P33981)
# MAP2K4 (human) = MAP2K4 (human) (UniProt P45985)
# ADCK3 (human) = ADCK3 (human) (UniProt Q8NI60)
# CAMK4 (human) = CAMK4 (human) (UniProt Q16566)
# PKN2 (human) = PKN2 (human) (UniProt Q16513)
# Sequence of PKN2 (human) (Q16513 whole entry, looked up): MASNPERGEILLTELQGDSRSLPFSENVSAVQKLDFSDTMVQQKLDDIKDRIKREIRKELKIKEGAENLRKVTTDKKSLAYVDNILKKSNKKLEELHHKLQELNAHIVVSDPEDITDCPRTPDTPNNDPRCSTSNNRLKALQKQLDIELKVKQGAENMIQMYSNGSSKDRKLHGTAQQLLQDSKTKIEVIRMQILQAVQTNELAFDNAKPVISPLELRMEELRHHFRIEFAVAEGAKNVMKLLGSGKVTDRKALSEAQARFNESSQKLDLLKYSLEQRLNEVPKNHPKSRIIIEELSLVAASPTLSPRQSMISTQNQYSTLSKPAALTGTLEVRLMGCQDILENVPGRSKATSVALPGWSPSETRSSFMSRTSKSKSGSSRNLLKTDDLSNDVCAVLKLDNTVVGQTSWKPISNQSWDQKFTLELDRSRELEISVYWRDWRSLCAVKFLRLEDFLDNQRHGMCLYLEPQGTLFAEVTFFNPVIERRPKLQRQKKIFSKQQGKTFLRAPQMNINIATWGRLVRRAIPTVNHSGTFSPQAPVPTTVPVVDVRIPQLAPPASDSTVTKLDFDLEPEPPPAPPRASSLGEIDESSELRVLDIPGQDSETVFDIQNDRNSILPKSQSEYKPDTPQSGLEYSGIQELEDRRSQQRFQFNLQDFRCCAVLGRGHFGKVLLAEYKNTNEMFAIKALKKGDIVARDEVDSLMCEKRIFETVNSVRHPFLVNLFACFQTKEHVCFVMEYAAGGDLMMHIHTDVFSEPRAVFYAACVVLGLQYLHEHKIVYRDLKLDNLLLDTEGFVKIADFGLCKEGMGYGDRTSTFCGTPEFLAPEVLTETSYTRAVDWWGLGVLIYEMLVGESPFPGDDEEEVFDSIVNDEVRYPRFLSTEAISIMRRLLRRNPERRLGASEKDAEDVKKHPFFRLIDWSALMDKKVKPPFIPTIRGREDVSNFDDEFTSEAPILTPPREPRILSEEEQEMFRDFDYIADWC
# AKT2 (human) = AKT2 (human) (UniProt P31751)
# PRKCQ (human) = PRKCQ (human) (UniProt Q04759)
# PRKX (human) = PRKX (human) (UniProt P51817)
# PAK6 (human) = PAK6 (human) (UniProt Q9NQU5)
# CLK1 (human) = CLK1 (human) (UniProt P49759)
# Sequence of CLK1 (human) (P49759 whole entry, looked up): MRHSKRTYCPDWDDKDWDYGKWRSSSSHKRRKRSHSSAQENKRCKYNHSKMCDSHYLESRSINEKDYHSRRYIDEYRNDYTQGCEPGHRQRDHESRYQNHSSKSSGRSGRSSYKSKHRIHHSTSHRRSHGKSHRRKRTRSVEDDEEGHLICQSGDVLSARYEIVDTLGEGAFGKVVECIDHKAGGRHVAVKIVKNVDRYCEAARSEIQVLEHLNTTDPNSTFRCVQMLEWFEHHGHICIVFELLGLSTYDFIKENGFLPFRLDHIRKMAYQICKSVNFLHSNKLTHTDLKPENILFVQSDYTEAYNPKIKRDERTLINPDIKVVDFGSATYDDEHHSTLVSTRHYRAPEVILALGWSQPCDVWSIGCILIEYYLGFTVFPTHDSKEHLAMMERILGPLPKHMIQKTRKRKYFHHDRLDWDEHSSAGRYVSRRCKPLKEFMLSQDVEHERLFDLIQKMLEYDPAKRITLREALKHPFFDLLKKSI
# CAMK1D (human) = CAMK1D (human) (UniProt Q8IU85)
# TRPM6 (human) = TRPM6 (human) (UniProt Q9BX84)
# Sequence of RET (human) (P07949 whole entry, looked up): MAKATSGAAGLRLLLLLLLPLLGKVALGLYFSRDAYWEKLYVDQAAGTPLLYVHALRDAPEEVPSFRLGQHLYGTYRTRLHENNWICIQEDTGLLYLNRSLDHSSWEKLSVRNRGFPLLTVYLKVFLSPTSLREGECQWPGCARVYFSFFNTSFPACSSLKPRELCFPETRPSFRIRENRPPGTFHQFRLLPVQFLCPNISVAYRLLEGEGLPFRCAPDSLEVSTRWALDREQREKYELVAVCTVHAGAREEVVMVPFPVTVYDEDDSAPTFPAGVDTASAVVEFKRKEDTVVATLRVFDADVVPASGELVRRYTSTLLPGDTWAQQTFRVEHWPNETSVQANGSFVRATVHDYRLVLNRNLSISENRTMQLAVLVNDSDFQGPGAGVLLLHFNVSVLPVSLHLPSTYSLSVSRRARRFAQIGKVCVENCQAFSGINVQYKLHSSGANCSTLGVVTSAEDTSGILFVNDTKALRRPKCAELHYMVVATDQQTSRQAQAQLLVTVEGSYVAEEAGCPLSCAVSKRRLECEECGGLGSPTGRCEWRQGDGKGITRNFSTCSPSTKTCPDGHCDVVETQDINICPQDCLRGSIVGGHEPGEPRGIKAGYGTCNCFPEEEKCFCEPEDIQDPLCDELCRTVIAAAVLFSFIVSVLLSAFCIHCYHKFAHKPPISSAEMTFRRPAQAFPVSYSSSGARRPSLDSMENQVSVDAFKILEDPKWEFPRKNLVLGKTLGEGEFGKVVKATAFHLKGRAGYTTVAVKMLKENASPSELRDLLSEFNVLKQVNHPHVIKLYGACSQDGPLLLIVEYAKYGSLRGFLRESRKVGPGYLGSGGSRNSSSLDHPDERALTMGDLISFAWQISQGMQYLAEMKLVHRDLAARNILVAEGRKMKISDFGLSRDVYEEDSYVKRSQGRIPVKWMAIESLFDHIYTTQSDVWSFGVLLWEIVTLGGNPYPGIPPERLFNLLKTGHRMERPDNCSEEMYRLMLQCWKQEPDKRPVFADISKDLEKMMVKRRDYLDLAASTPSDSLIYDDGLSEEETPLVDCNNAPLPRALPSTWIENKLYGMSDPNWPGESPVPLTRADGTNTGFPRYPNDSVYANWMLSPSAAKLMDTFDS
SMILES,"kinase still bound, per cent of control (RET (human))","kinase still bound, per cent of control (PIK3C2B (human))","kinase still bound, per cent of control (PHKG1 (human))","kinase still bound, per cent of control (SRC (human))","kinase still bound, per cent of control (CAMK2A (human))","kinase still bound, per cent of control (MAPK9 (human))","kinase still bound, per cent of control (BTK (human))","kinase still bound, per cent of control (ROCK1 (human))","kinase still bound, per cent of control (CDKL5 (human))","kinase still bound, per cent of control (CLK4 (human))","kinase still bound, per cent of control (PRPF4B (human))","kinase still bound, per cent of control (STK11 (human))","kinase still bound, per cent of control (GRK1 (human))","kinase still bound, per cent of control (HIPK2 (human))","kinase still bound, per cent of control (ZAP70 (human))","kinase still bound, per cent of control (EPHB6 (human))","kinase still bound, per cent of control (MAPK8 (human))","kinase still bound, per cent of control [2]","kinase still bound, per cent of control (MAPK4 (human))","kinase still bound, per cent of control (TTK (human))",other results
Cc1cn(-c2cc(C(=O)Nc3ccc(C)c(NC(=O)c4ccno4)c3)cc(C(F)(F)F)c2)cn1,100%,100%,100%,2.4%,100%,100%,100%,100%,100%,100%,100%,100%,100%,100%,100%,100%,100%,100%,100%,100%,"kinase still bound, per cent of control (MAP3K5 (human)): 100%; kinase still bound, per cent of control (MAPK10 (human)): 100%; kinase still bound, per cent of control (TIE1 (human)): 100%; kinase still bound, per cent of control (MUSK (human)): 100%; kinase still bound, per cent of control (FRK (human)): 0.85%; kinase still bound, per cent of control (ACVRL1 (human)): 100%; kinase still bound, per cent of control [1]: 100%; kinase still bound, per cent of control (STK17A (human)): 100%; kinase still bound, per cent of control (PRKCH (human)): 100%; kinase still bound, per cent of control (PI4KB (human)): 100%; kinase still bound, per cent of control (MAP2K4 (human)): 100%; kinase still bound, per cent of control (ADCK3 (human)): 100%; kinase still bound, per cent of control (CAMK4 (human)): 100%; kinase still bound, per cent of control (PKN2 (human)): 100%; kinase still bound, per cent of control (AKT2 (human)): 100%; kinase still bound, per cent of control (PRKCQ (human)): 100%; kinase still bound, per cent of control (PRKX (human)): 100%; kinase still bound, per cent of control (PAK6 (human)): 100%; kinase still bound, per cent of control (CLK1 (human)): 100%; kinase still bound, per cent of control (CAMK1D (human)): 100%"
CCN(CCO)CCCOc1ccc2c(Nc3cc(CC(=O)Nc4cccc(F)c4)[nH]n3)ncnc2c1,0.25%,58%,35%,43%,78%,46%,7.2%,67%,50%,36%,67%,80%,100%,31%,84%,0.8%,59%,52%,100%,49%,"kinase still bound, per cent of control (TRPM6 (human)): 100%; kinase still bound, per cent of control (MAP3K5 (human)): 100%; kinase still bound, per cent of control (MAPK10 (human)): 41%; kinase still bound, per cent of control (MUSK (human)): 3.3%; kinase still bound, per cent of control (FRK (human)): 90%; kinase still bound, per cent of control (ACVRL1 (human)): 97%; kinase still bound, per cent of control (STK17A (human)): 46%; kinase still bound, per cent of control (PRKCH (human)): 100%; kinase still bound, per cent of control (PI4KB (human)): 100%; kinase still bound, per cent of control (MAP2K4 (human)): 100%; kinase still bound, per cent of control (ADCK3 (human)): 85%; kinase still bound, per cent of control (CAMK4 (human)): 100%; kinase still bound, per cent of control (PKN2 (human)): 86%; kinase still bound, per cent of control (AKT2 (human)): 90%; kinase still bound, per cent of control (PRKCQ (human)): 100%; kinase still bound, per cent of control (PRKX (human)): 66%; kinase still bound, per cent of control (PAK6 (human)): 98%; kinase still bound, per cent of control (CLK1 (human)): 69%; kinase still bound, per cent of control (CAMK1D (human)): 83%"
N#C/C(=C1/Nc2ccccc2S1)c1ccnc(NCCc2cccnc2)n1,100%,19%,100%,100%,46%,0.25%,77%,37%,82%,29%,79%,77%,100%,1.4%,100%,3.2%,0%,100%,96%,62%,"kinase still bound, per cent of control (TRPM6 (human)): 100%; kinase still bound, per cent of control (MAP3K5 (human)): 100%; kinase still bound, per cent of control (TIE1 (human)): 100%; kinase still bound, per cent of control (MUSK (human)): 100%; kinase still bound, per cent of control (FRK (human)): 100%; kinase still bound, per cent of control (ACVRL1 (human)): 100%; kinase still bound, per cent of control (STK17A (human)): 100%; kinase still bound, per cent of control (PRKCH (human)): 100%; kinase still bound, per cent of control (PI4KB (human)): 20%; kinase still bound, per cent of control (MAP2K4 (human)): 1.1%; kinase still bound, per cent of control (ADCK3 (human)): 91%; kinase still bound, per cent of control (CAMK4 (human)): 100%; kinase still bound, per cent of control (PKN2 (human)): 100%; kinase still bound, per cent of control (AKT2 (human)): 89%; kinase still bound, per cent of control (PRKCQ (human)): 100%; kinase still bound, per cent of control (PRKX (human)): 81%; kinase still bound, per cent of control (PAK6 (human)): 78%; kinase still bound, per cent of control (CLK1 (human)): 69%; kinase still bound, per cent of control (CAMK1D (human)): 70%"
CC(=O)c1c(C)c2cnc(Nc3ccc(N4CCNCC4)cn3)nc2n(C2CCCC2)c1=O,71%,98%,18%,93%,3.2%,0.5%,13%,30%,1%,2%,78%,82%,89%,0.25%,73%,65%,1.6%,41%,87%,26%,"kinase still bound, per cent of control (TRPM6 (human)): 91%; kinase still bound, per cent of control (MAPK10 (human)): 0.35%; kinase still bound, per cent of control (ADCK3 (human)): 63%; kinase still bound, per cent of control (PKN2 (human)): 48%; kinase still bound, per cent of control (PRKCQ (human)): 68%; kinase still bound, per cent of control (PRKX (human)): 90%; kinase still bound, per cent of control (PAK6 (human)): 66%; kinase still bound, per cent of control (CLK1 (human)): 1.2%; kinase still bound, per cent of control (CAMK1D (human)): 7.3%"
